Some test systems named below: U251 CNS; NCI-H460 lung; MCF7 breast; IGROV1 ovarian; UACC-257 melanoma; 786-0 renal; HOP-92 NSCLC; EKVX NSCLC; NCI-H522 lung; UO-31 renal.
Test in all cases: NCI tumour cell line growth inhibition, 48 h

Where “and” joins values, the source holds several entries; their conditions need not be identical. Identical values can stand only once.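 Five compound concentrations were applied to cells in 96-well plates for 48 hours; endpoints were derived by simple linear interpolation of the resulting dose-response curve. GI50 marks 50% less growth. The concentration for full growth arrest is given as TGI.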

Turning to `CC1=CC(C)=NN=C(N)N1S(=O)(=O)c1cc(C)c(Cl)cc1SCc1ccccc1`, the GI50 was 16.8 µM with U251 CNS; 9.22 µM with NCI-H460 lung; 13.3 µM in the experiment with MCF7 breast; 46 µM in the experiment with IGROV1 ovarian; 37.6 µM in the experiment with UACC-257 melanoma; 73.4 µM in the experiment with 786-0 renal. In addition, the GI50 was 3.82 µM in the experiment with HOP-92 NSCLC, 6.08 µM with EKVX NSCLC, 7.78 µM in the experiment with NCI-H522 lung and 5.18 µM with UO-31 renal. Besides, the TGI in the experiment on U251 CNS, in the experiment with NCI-H460 lung, with MCF7 breast, with IGROV1 ovarian, with UACC-257 melanoma and in the experiment with 786-0 renal was over 100 µM in each case. The TGI in the experiment with HOP-92 NSCLC was 38.8 µM; in the experiment with EKVX NSCLC, over 100 µM; with NCI-H522 lung, over 100 µM; in the experiment on UO-31 renal, over 100 µM.

Take `Oc1ccc(Nc2ccc3ccccc3c2)cc1`: the GI50 with U251 CNS is 4.83 µM; with NCI-H460 lung, 4.27 µM; with MCF7 breast, 15.8 µM; with IGROV1 ovarian, 3.75 µM; with UACC-257 melanoma, 4.86 µM; in the experiment with 786-0 renal, 3.78 µM. The GI50 in the experiment with HOP-92 NSCLC was 10.2 µM; in the experiment on EKVX NSCLC it was 3.66 µM; with NCI-H522 lung, 8.99 µM; with UO-31 renal, 1.6 µM. The TGI with U251 CNS is 23.9 µM; in the experiment with NCI-H460 lung it was 15.8 µM; in the experiment on MCF7 breast, over 100 µM; in the experiment with IGROV1 ovarian it was 18 µM; in the experiment with UACC-257 melanoma, 34.3 µM; in the experiment with 786-0 renal it was 15.5 µM. The TGI amounted to 32.6 µM with HOP-92 NSCLC, 20.5 µM in the experiment with EKVX NSCLC, 27.7 µM in the experiment with NCI-H522 lung and 9.49 µM with UO-31 renal.

For the molecule `CCN(CC)CCCC(C)Nc1ccnc2cc(Cl)ccc12` (centres undefined), the GI50 with U251 CNS is over 100 µM; with NCI-H460 lung it was 66.6 µM; with MCF7 breast, 63.9 µM; in the experiment on IGROV1 ovarian, over 100 µM; with UACC-257 melanoma it was 19.8 µM; with 786-0 renal, 67.2 µM. Moreover, the GI50 with HOP-92 NSCLC was 52 µM; in the experiment on NCI-H522 lung, over 100 µM; in the experiment on UO-31 renal it was 84.8 µM. For the same molecule, the TGI is > 100 µM and 66.1 µM in the experiment on U251 CNS; over 100 µM in the experiment on NCI-H460 lung; > 100 µM and 42.3 µM in the experiment with MCF7 breast; over 100 µM in the experiment with IGROV1 ovarian; 35.7 µM and > 62.1 µM in the experiment with UACC-257 melanoma; > 100 µM and 23.9 µM in the experiment with 786-0 renal. For the same molecule, the TGI is > 100 µM and 44.9 µM with HOP-92 NSCLC; over 100 µM in the experiment on EKVX NSCLC; over 100 µM with NCI-H522 lung; > 100 µM and 46.4 µM in the experiment with UO-31 renal.

With `CC(=O)OC1CCC2(C)C(CCC3C2CC(=O)C2(C)C3CC(N3CC3)C2C(C)=O)C1` (centres undefined), the TGI was 37.8 µM in the experiment on U251 CNS; 33.9 µM in the experiment on NCI-H460 lung; 47.1 µM in the experiment on MCF7 breast; 56.4 µM with IGROV1 ovarian; 32.5 µM with UACC-257 melanoma; 64.4 µM with 786-0 renal. The TGI with HOP-92 NSCLC was 43.1 µM; with EKVX NSCLC it was 40.9 µM; in the experiment on NCI-H522 lung, 29.8 µM; in the experiment on UO-31 renal, 46.4 µM.

Consider `O=c1oc2ccc(I)cc2c(=O)n1-c1ccc(F)cc1F`, for which the GI50 in the experiment with U251 CNS is 2.64 µM; with NCI-H460 lung it was 2.8 µM; in the experiment with MCF7 breast, 2.38 µM; with IGROV1 ovarian, 2.07 µM; in the experiment on UACC-257 melanoma, 2.01 µM; in the experiment on 786-0 renal, 3.03 µM. The GI50 was 0.7 µM with HOP-92 NSCLC, 1.98 µM in the experiment with EKVX NSCLC, 2.65 µM with NCI-H522 lung and 1.48 µM in the experiment on UO-31 renal. For the same molecule, the TGI with U251 CNS came out at 19 µM; in the experiment on NCI-H460 lung, 12.8 µM; in the experiment on MCF7 breast, 49.1 µM; in the experiment on IGROV1 ovarian, 33.2 µM; with UACC-257 melanoma, 6.12 µM; with 786-0 renal, 9.67 µM. Further, the TGI in the experiment on HOP-92 NSCLC came to 3.78 µM; in the experiment on EKVX NSCLC, 8.1 µM; in the experiment on NCI-H522 lung it was 10.2 µM; in the experiment with UO-31 renal, 5.71 µM.

As to `BrC(Br)=C1C(=C(Br)Br)C(Br)C1Br` (centres undefined), the TGI in the experiment on U251 CNS turned out to be 2.69 µM; in the experiment with NCI-H460 lung it was 1.35 µM; in the experiment with MCF7 breast, 1.31 µM; with IGROV1 ovarian, 5.68 µM; in the experiment on UACC-257 melanoma, 5.3 µM; in the experiment with 786-0 renal, 0.882 µM. In addition, the TGI in the experiment with HOP-92 NSCLC came out at 2.96 µM; in the experiment on EKVX NSCLC it was 4.98 µM; in the experiment on NCI-H522 lung, 0.299 µM; with UO-31 renal, 2.24 µM.

With `C=C(CN1CCN(c2ccc(C(F)(F)F)cc2)CC1)c1ccc(C(=O)Nc2ccccc2N)cc1`, the GI50 is 6.25 µM in the experiment with U251 CNS; 3.44 µM in the experiment on NCI-H460 lung; 10.9 µM in the experiment on MCF7 breast; 18.2 µM in the experiment with IGROV1 ovarian; 2.39 µM in the experiment with UACC-257 melanoma; 2.85 µM in the experiment on 786-0 renal. Besides, the GI50 with HOP-92 NSCLC was 3.95 µM; in the experiment with EKVX NSCLC, 12.3 µM; in the experiment with NCI-H522 lung it was 1.85 µM; with UO-31 renal, 0.967 µM. The TGI with U251 CNS is 31 µM; in the experiment with NCI-H460 lung, over 100 µM; in the experiment on MCF7 breast, over 100 µM; in the experiment on IGROV1 ovarian, over 100 µM; with UACC-257 melanoma, over 100 µM; with 786-0 renal, over 100 µM. The TGI in the experiment on HOP-92 NSCLC is 23.7 µM; in the experiment with EKVX NSCLC it was over 100 µM; with NCI-H522 lung, over 100 µM; in the experiment on UO-31 renal it was over 73.1 µM.

Consider `C=C1CC2(CC(c3ccccc3Cl)OC(c3ccccc3Cl)C2)OC1=O` (centres undefined), for which the TGI with U251 CNS was 15.6 µM; in the experiment on NCI-H460 lung it was 12.6 µM; with MCF7 breast, 5 µM; with IGROV1 ovarian, 4.62 µM; with UACC-257 melanoma, 5.14 µM; in the experiment with 786-0 renal, 4.66 µM. Further, the TGI in the experiment on HOP-92 NSCLC turned out to be 4.65 µM; with EKVX NSCLC, 15.2 µM; in the experiment with NCI-H522 lung, 3.3 µM; in the experiment with UO-31 renal it was 11.7 µM.

Turning to `NC(N)=NCC1CCCCCCN1` (centres undefined), the TGI in the experiment with U251 CNS, in the experiment on NCI-H460 lung, with MCF7 breast, with IGROV1 ovarian, with UACC-257 melanoma and in the experiment on 786-0 renal was over 100 µM each time. Besides, the TGI in the experiment with HOP-92 NSCLC, with EKVX NSCLC, with NCI-H522 lung and in the experiment with UO-31 renal was over 100 µM each time.

In the case of `O=C1/C=C/[C@@H](O)[C@@H]2C[C@@H](O)C[C@H]2/C=C/CCC[C@H](CCc2cccc3ccccc23)O1`, the GI50 in the experiment with U251 CNS is 0.0475 µM; in the experiment on NCI-H460 lung, 0.274 µM; in the experiment with MCF7 breast, 0.0753 µM; in the experiment on IGROV1 ovarian it was 0.267 µM; in the experiment on UACC-257 melanoma, 0.0303 µM; with 786-0 renal it was 0.02 µM. The GI50 is 12.3 µM in the experiment on HOP-92 NSCLC, 0.0816 µM in the experiment with EKVX NSCLC, 0.234 µM with NCI-H522 lung and 0.046 µM in the experiment with UO-31 renal. The TGI with U251 CNS came out at 12.1 µM; with NCI-H460 lung, 12.2 µM; with MCF7 breast, 0.377 µM; with IGROV1 ovarian, 12.1 µM; with UACC-257 melanoma, 0.983 µM; in the experiment on 786-0 renal, 0.0372 µM. The TGI is 26.4 µM with HOP-92 NSCLC, 14 µM with EKVX NSCLC, 0.581 µM with NCI-H522 lung and 12.3 µM in the experiment with UO-31 renal.

For the molecule `C[C@H]1/C(=C/C(=O)OCCN(C)C)CC[C@H]2[C@H]1C(=O)C[C@H]1C(C)(C)[C@@H](O)CC[C@]21C`, the TGI with U251 CNS, in the experiment with NCI-H460 lung, in the experiment with MCF7 breast, with IGROV1 ovarian, in the experiment on UACC-257 melanoma and with 786-0 renal was over 100 µM each time. Besides, the TGI in the experiment with HOP-92 NSCLC, in the experiment with EKVX NSCLC, with NCI-H522 lung and in the experiment with UO-31 renal was over 100 µM in each case.

`O=C(CCl)NCCNc1nccc(Nc2ccc(S(=O)(=O)Nc3ccccn3)cc2)n1`: the GI50 in the experiment on U251 CNS was 1.21 µM; in the experiment on NCI-H460 lung, 2.39 µM; in the experiment on MCF7 breast, 1.78 µM; in the experiment with IGROV1 ovarian, 2.12 µM; with UACC-257 melanoma it was 2.54 µM; in the experiment on 786-0 renal, 3.25 µM. In addition, the GI50 is 3.46 µM with HOP-92 NSCLC, 3.15 µM with EKVX NSCLC, 1.61 µM in the experiment with NCI-H522 lung and 2.77 µM with UO-31 renal. Besides, the TGI in the experiment on U251 CNS was 3.43 µM; in the experiment on NCI-H460 lung, 7.22 µM; with MCF7 breast, 5.61 µM; in the experiment on IGROV1 ovarian, 6.72 µM; in the experiment on UACC-257 melanoma, 14.4 µM; with 786-0 renal it was 11.7 µM. The TGI stood at 9.09 µM in the experiment with HOP-92 NSCLC, 12.8 µM in the experiment with EKVX NSCLC, 3.98 µM with NCI-H522 lung and 10 µM with UO-31 renal.

As to `CCCCCCCCCCCCCCCCCc1nccn1CCOCCO`, the GI50 in the experiment on U251 CNS is 4.52 µg/mL; in the experiment with NCI-H460 lung, 5.66 µg/mL; with MCF7 breast, 5.65 µg/mL; in the experiment with IGROV1 ovarian it was 6.03 µg/mL; in the experiment on UACC-257 melanoma, 5.49 µg/mL; in the experiment with 786-0 renal, 6.19 µg/mL. The GI50 with HOP-92 NSCLC was 2.33 µg/mL; in the experiment on EKVX NSCLC, 4.83 µg/mL; in the experiment with NCI-H522 lung it was 4.84 µg/mL; in the experiment with UO-31 renal, 5.68 µg/mL. The TGI with U251 CNS turned out to be 9.62 µg/mL; with NCI-H460 lung, 11.9 µg/mL; with MCF7 breast, 11.4 µg/mL; in the experiment on IGROV1 ovarian, 13.2 µg/mL; with UACC-257 melanoma it was 11 µg/mL; in the experiment on 786-0 renal, 11.7 µg/mL. Besides, the TGI is 7.98 µg/mL in the experiment with HOP-92 NSCLC, 10.3 µg/mL in the experiment with EKVX NSCLC, 10.2 µg/mL in the experiment on NCI-H522 lung and 11.6 µg/mL in the experiment on UO-31 renal.

Values taken from PubChem BioAssay (NCI).
